According to the NIST ThermoML archive (doi:10.1021/je700152c):

Assay: molar heat capacity at saturation pressure; xn = mol fraction of the nth substance listed

CCCCn1cc[n+](C)c1.Cc1ccc(S(=O)(=O)[O-])cc1 [1-butyl-3-methylimidazolium tosylate] + O
molar heat capacity [J/K/mol]
Conditions | Crystal | Metastable crystal
78.15 K, x1 = 0.83 | 130.09 | –
78.19 K, x1 = 0.83 | – | 130.61
80.13 K, x1 = 0.83 | 132.44 | –
80.17 K, x1 = 0.83 | – | 132.96
81.97 K, x1 = 0.83 | 134.26 | –
82.01 K, x1 = 0.83 | – | 135.05
83.83 K, x1 = 0.83 | 136.35 | –
83.86 K, x1 = 0.83 | – | 137.39
85.69 K, x1 = 0.83 | 138.43 | –
85.72 K, x1 = 0.83 | – | 139.48
87.56 K, x1 = 0.83 | 140.78 | –
87.59 K, x1 = 0.83 | – | 141.82
89.44 K, x1 = 0.83 | 142.87 | –
89.46 K, x1 = 0.83 | – | 144.17
91.33 K, x1 = 0.83 | 144.95 | –
91.34 K, x1 = 0.83 | – | 146.26
93.22 K, x1 = 0.83 | 147.04 | –
93.23 K, x1 = 0.83 | – | 148.6
95.13 K, x1 = 0.83 | 149.12 | 150.69
97.03 K, x1 = 0.83 | – | 153.03
97.04 K, x1 = 0.83 | 150.95 | –
98.94 K, x1 = 0.83 | – | 155.38
98.95 K, x1 = 0.83 | 153.03 | –
100.85 K, x1 = 0.83 | – | 157.47
100.88 K, x1 = 0.83 | 155.12 | –
102.77 K, x1 = 0.83 | – | 159.81
102.8 K, x1 = 0.83 | 156.94 | –
104.69 K, x1 = 0.83 | – | 161.9
104.74 K, x1 = 0.83 | 159.03 | –
106.61 K, x1 = 0.83 | – | 164.24
106.68 K, x1 = 0.83 | 161.12 | –
108.55 K, x1 = 0.83 | – | 166.33
108.63 K, x1 = 0.83 | 163.2 | –
110.48 K, x1 = 0.83 | – | 168.68
110.57 K, x1 = 0.83 | 165.03 | –
112.41 K, x1 = 0.83 | – | 170.76
112.53 K, x1 = 0.83 | 167.11 | –
114.35 K, x1 = 0.83 | – | 173.11
114.48 K, x1 = 0.83 | 169.2 | –
116.29 K, x1 = 0.83 | – | 175.19
116.44 K, x1 = 0.83 | 171.02 | –
118.23 K, x1 = 0.83 | – | 177.54
118.4 K, x1 = 0.83 | 173.11 | –
120.18 K, x1 = 0.83 | – | 179.89
120.37 K, x1 = 0.83 | 175.19 | –
122.12 K, x1 = 0.83 | – | 182.23
122.34 K, x1 = 0.83 | 177.02 | –
124.07 K, x1 = 0.83 | – | 184.32
124.3 K, x1 = 0.83 | 179.1 | –
126.01 K, x1 = 0.83 | – | 186.66
126.27 K, x1 = 0.83 | 181.19 | –
127.96 K, x1 = 0.83 | – | 189.01
128.25 K, x1 = 0.83 | 183.28 | –
129.91 K, x1 = 0.83 | – | 191.36
130.22 K, x1 = 0.83 | 185.36 | –
131.86 K, x1 = 0.83 | – | 193.7
132.19 K, x1 = 0.83 | 187.45 | –
133.81 K, x1 = 0.83 | – | 196.05
134.16 K, x1 = 0.83 | 189.79 | –
134.57 K, x1 = 0.3 | 80.15 | –
135.75 K, x1 = 0.83 | – | 198.4
136.14 K, x1 = 0.83 | 192.14 | –
137.46 K, x1 = 0.3 | 81.31 | –
137.7 K, x1 = 0.83 | – | 201
138.11 K, x1 = 0.83 | 194.75 | –
139.65 K, x1 = 0.83 | – | 203.09
140.08 K, x1 = 0.83 | 197.88 | –
140.19 K, x1 = 0.3 | 82.47 | –
141.59 K, x1 = 0.83 | – | 205.7
142.04 K, x1 = 0.83 | 201.53 | –
142.92 K, x1 = 0.3 | 83.64 | –
143.53 K, x1 = 0.83 | – | 208.04
143.99 K, x1 = 0.83 | 206.74 | –
145.47 K, x1 = 0.83 | – | 210.65
145.65 K, x1 = 0.3 | 84.8 | –
145.93 K, x1 = 0.83 | 214.56 | –
147.41 K, x1 = 0.83 | – | 213
147.86 K, x1 = 0.83 | 217.43 | –
148.38 K, x1 = 0.3 | 85.96 | –
149.35 K, x1 = 0.83 | – | 215.34
149.8 K, x1 = 0.83 | 211.69 | –
151.11 K, x1 = 0.3 | 87.13 | –
151.28 K, x1 = 0.83 | – | 217.95
151.76 K, x1 = 0.83 | 207.26 | –
153.22 K, x1 = 0.83 | – | 220.3
153.74 K, x1 = 0.83 | 206.22 | –
153.84 K, x1 = 0.3 | 88.29 | –
155.15 K, x1 = 0.83 | – | 222.64
155.72 K, x1 = 0.83 | 206.74 | –
156.57 K, x1 = 0.3 | 89.45 | –
157.08 K, x1 = 0.83 | – | 224.99
157.71 K, x1 = 0.83 | 207.78 | –
159.01 K, x1 = 0.83 | – | 227.6
159.29 K, x1 = 0.3 | 90.61 | –
159.7 K, x1 = 0.83 | 209.09 | –
160.94 K, x1 = 0.83 | – | 229.94
161.69 K, x1 = 0.83 | 210.65 | –
161.79 K, x1 = 0.37 | 108.28 | –
162.02 K, x1 = 0.3 | 91.78 | –
162.86 K, x1 = 0.83 | – | 232.29
163.68 K, x1 = 0.83 | 212.47 | –
164.74 K, x1 = 0.3 | 92.94 | –
164.78 K, x1 = 0.83 | – | 234.63
164.91 K, x1 = 0.37 | 109.92 | –
165.67 K, x1 = 0.83 | 214.3 | –
166.7 K, x1 = 0.83 | – | 236.72
167.46 K, x1 = 0.3 | 94.21 | –
167.65 K, x1 = 0.83 | 215.86 | –
167.87 K, x1 = 0.37 | 111.44 | –
168.62 K, x1 = 0.83 | – | 239.07
169.64 K, x1 = 0.83 | 217.69 | –
170.18 K, x1 = 0.3 | 95.37 | –
170.53 K, x1 = 0.83 | – | 240.89
170.82 K, x1 = 0.37 | 112.95 | –
171.63 K, x1 = 0.83 | 219.51 | –
172.45 K, x1 = 0.83 | – | 243.24
172.9 K, x1 = 0.3 | 96.64 | –
173.61 K, x1 = 0.83 | 221.34 | –
173.77 K, x1 = 0.37 | 114.59 | –
174.36 K, x1 = 0.83 | – | 245.32
175.6 K, x1 = 0.83 | 223.42 | –
175.61 K, x1 = 0.3 | 97.91 | –
176.27 K, x1 = 0.83 | – | 247.15
176.72 K, x1 = 0.37 | 116.23 | –
177.58 K, x1 = 0.83 | 224.99 | –
178.18 K, x1 = 0.83 | – | 248.97
178.32 K, x1 = 0.3 | 99.28 | –
179.56 K, x1 = 0.83 | 227.07 | –
179.67 K, x1 = 0.37 | 118.38 | –
180.09 K, x1 = 0.83 | – | 250.8
181.02 K, x1 = 0.3 | 101.4 | –
181.54 K, x1 = 0.83 | 228.9 | –
181.99 K, x1 = 0.83 | – | 252.62
182.6 K, x1 = 0.37 | 121.41 | –
183.52 K, x1 = 0.83 | 230.72 | –
183.7 K, x1 = 0.3 | 104.68 | –
183.9 K, x1 = 0.83 | – | 254.19
185.5 K, x1 = 0.37 | 126.71 | –
185.5 K, x1 = 0.83 | 232.81 | –
185.8 K, x1 = 0.83 | – | 256.01
186.36 K, x1 = 0.3 | 107.53 | –
187.47 K, x1 = 0.83 | 234.9 | –
